Tested on: P. falciparum
Settings: in vivo

## Asn-Pro-Asn-Ala-Asn-(Apro-Asn-Ala-Asn-Pro-Asn-Ala-Asn-Pro-Asn-Glu)cyclo-Asn-Pro-Asn-Ala attached to a PE moiety [UK39]
  Antigenicity: excellent
